Measurements reported in the NIST ThermoML archive (doi:10.1021/je901079k).

Assay: xn = mol fraction of the nth substance listed
Details: Maximal bubble pressure

F.[F-].[Na+] [sodium hydrogen fluoride] + [F][Al]([F])[F]
Details	surface tension liquid-gas [mN/m]
1130.2 K, x1 = 0.6	92.04
1159.2 K, x1 = 0.6	89.61
1184.2 K, x1 = 0.6	87.51
1215.2 K, x1 = 0.6	84.94
1239.7 K, x1 = 0.6	82.84
1274.2 K, x1 = 0.6667	105.93
1297.2 K, x1 = 0.6667	104.59
1297.2 K, x1 = 0.7143	121.35
1299.2 K, x1 = 0.75	132.71
1318.2 K, x1 = 0.7143	118.25
1318.2 K, x1 = 0.75	130.09
1319.2 K, x1 = 0.6667	103.14
1329.2 K, x1 = 0.7143	116.62
1339.2 K, x1 = 0.75	127.18
1340.2 K, x1 = 0.6667	101.57
1348.2 K, x1 = 0.7143	113.82
1368.2 K, x1 = 0.7143	110.87
1370.2 K, x1 = 0.75	122.89
